Experimental data as given in patent US9066922B2, “Pharmaceutical composition for the treatment or prevention of diseases involving obesity, diabetes, metabolic syndrome, neuro-degenerative diseases and mitochondria dysfunction diseases” (MD BIOALPHA CO., LTD., priority 2005, dated 2015).

Legend:
Sprague-Dawley rats [1] = assay: Acute toxicity test, oral administration; assay type: in vivo; details: oral, 50, 100 and 200 mg/kg, observed for 2 weeks, vs control group
AMPK = assay: Determination of AMPK activation in C2C12 myoblast cells (SAMS peptide, [γ-32P]ATP); assay type: cell-based; details: differentiated C2C12 myoblast cells, 5 μg/ml, compared with control (DMSO 0.5% = 1)
Description: Myoblast cells, C2C12, were cultured in DMEM containing 10% bovine calf serum. When a cell density reached a range of about 85% to 90%, the culture medium was replaced with a medium containing 1% bovine calf serum to induce differentiation of cells. The thus-differentiated myoblast cells were treated with samples synthesized in Examples 1 through 29 at a concentration of 5 μg/ml, and compared with a control group. Enzymatic activity of AMPK was determined as follows. Firstly, C2C12 cells were lysed to obtain protein extracts and then ammonium sulfate was added to a final concentration of 30%, thereby precipitating proteins. Protein precipitates were dissolved in a buffer (62.5 mM Hepes, pH 7.2, 62.5 mM NaCl, 62.5 mM NaF, 1.25 mM Na pyrophosphate, 1.25 mM EDTA, 1 mM DTT, 0.1 mM PMSF, and 200 μM AMP). Thereafter, 200 μM SAMS peptide (HMRSAMSGLHLVKRR: the underlined serine residue is a phosphorylation site, as an AMPK phosphorylation site of acetyl-CoA carboxylase) and [γ-32P]ATP were added thereto and reactants were reacted for 10 minutes at 30° C. This was followed by spotting of the resulting reaction solution on p81 phosphocellulose paper. The p81 paper was washed with a 3% phosphoric acid solution and radioactivity thereof was measured. For each reaction condition, reactions involving no SAMS peptide were also conducted and basic values were subtracted from the thus-observed values.

Sprague-Dawley rats [2] = assay: Acute toxicity test, peritoneal administration; assay type: in vivo; details: peritoneal, 50, 100 and 200 mg/kg, observed for 2 weeks, vs control group
[3] = system: C57BL/6JL Lep ob/Lep ob mice; assay: Blood lipid, glucose and enzyme levels in obese mice (ob/ob); assay type: in vivo; parameters: unit not given here; details: 100 mg/kg for 26 days
Description: (§1) 10-week-old C57BL/6JL Lep ob/Lep ob male mice having obesity characteristics and predisposition were purchased from Daehan Biolink Co., Ltd. (Chungchongbuk-do, Korea). Animals were raised in a breeding room maintained at a temperature of 23 C, 55% humidity, illumination of 300 to 500 lux, a 12-h light/dark (L/D) cycle, and ventilation of 10 to 18 times/hr. Animals were fed ad libitum pellets of Purina Rodent Laboratory Chow 5001 (purchased from Purina Mills Inc., St. Louis, Mo., USA) as a solid feed for experimental animals and tap water as drinking water. Mice were allowed to acclimate to new environment of the breeding room for two weeks and were then administered some pyrano-o-naphthoquinone and furano-o-naphthoquinone derivatives synthesized according to the present invention at doses of 100 mg/kg for 26 days. Observation was made on changes in body weight, blood glucose and dietary intake, with respect to a time course of administration. After administration was complete, Computed Tomography (CT) was performed to confirm changes in adipose tissue distribution of animals, changes in fat distribution of tissues in various organs, changes in sizes of adipocytes, and changes in glucose, lipid and enzyme levels in blood and liver.

[4] = system: C57BL/6JL Lep ob/Lep ob mice; assay: Weight loss effects in obese mice (ob/ob): body weight; assay type: in vivo; details: 100 mg/kg for 26 days; for change in vivo at 100 mg/kg: Mus musculus, 624 h, read-out: Increase in BW
Description: as §1

Compound	visually observable symptoms (Sprague-Dawley rats [1])	AMPK fold (AMPK) [fold]	visually observable symptoms (Sprague-Dawley rats [2])	Cholesterol [3]	GOT [3]	GPT [3]	Glucose [3]	Triglyceride [3]	Final BW [4] [g]	change in vivo at 100 mg/kg [4] [%]
CC1OC2=C(C(=O)C(=O)c3ccccc32)C1(C)C (centres unmarked) [Compound 2, Dunnione]	no visually observable symptoms with exception of weight loss	1.4	no visually observable symptoms with exception of weight loss	123	50	43	125	154	28.7	-46.2
CC1C2=C(OC1(C)C)c1ccccc1C(=O)C2=O (centres unmarked) [Compound 3]	no visually observable symptoms with exception of weight loss	3.2	no visually observable symptoms with exception of weight loss	128	36	32	122	129	39.7	-27.9
CC1(C)CC2=C(O1)c1ccccc1C(=O)C2=O [Compound 4]	no visually observable symptoms with exception of weight loss	2.2	no visually observable symptoms with exception of weight loss	130	48	44	134	148	40.0	-27.8
CC1CC2=C(O1)c1ccccc1C(=O)C2=O (centres unmarked) [Compound 5]		1.3		117	38	29	112	137	36.1	-39.5
O=C1C(=O)c2ccccc2C2=C1CCO2 [Compound 6]		2.2								
O=C1C(=O)c2ccccc2C2=C1CCC(c1ccccc1)O2 (centres unmarked) [Compound 7]		2.2								
CC1OC2=C(C(=O)C(=O)c3ccccc32)C1c1ccccc1 (centres unmarked) [Compound 8]		1.9								
C=C1OC2=C(C(=O)C(=O)c3ccccc32)C1(C)C [Compound 9]		2.6								
COC1(C)OC2=C(C(=O)C(=O)c3ccccc32)C1(C)C (centres unmarked) [Compound 10]		1.6								
CC1(C)C=CC2=C(O1)c1ccccc1C(=O)C2=O [Compound 11]		1.3								
C=CC1(C)CCC2=C(O1)c1ccccc1C(=O)C2=O (centres unmarked) [Compound 12]	no visually observable symptoms with exception of weight loss	2.1	no visually observable symptoms with exception of weight loss							
CC(C)=CC1(C)CCC2=C(O1)c1ccccc1C(=O)C2=O (centres unmarked) [Compound 13]	no visually observable symptoms with exception of weight loss	2.3	no visually observable symptoms with exception of weight loss							
CC(C)=C/C(C)=C/C1(C)CCC2=C(O1)c1ccccc1C(=O)C2=O (centres unmarked) [Compound 14]	no visually observable symptoms with exception of weight loss	1.5	no visually observable symptoms with exception of weight loss	160	95	87	193	216	61.3	-4.7
C[C@H]1OC2=C(C(=O)C(=O)c3ccccc32)[C@@H]1C [Compound 16]	no visually observable symptoms with exception of weight loss	2.5	no visually observable symptoms with exception of weight loss							
C[C@@H]1C2=C(O[C@@H]1C)c1ccccc1C(=O)C2=O [Compound 17]	no visually observable symptoms with exception of weight loss	2.2	no visually observable symptoms with exception of weight loss							
CC1CCC2=C(O1)c1ccccc1C(=O)C2=O (centres unmarked) [Compound 18]		2.3								
CCC1CC2=C(O1)c1ccccc1C(=O)C2=O (centres unmarked) [Compound 19]		2.1								
CC1(C)CCCC2(C)OC3=C(CC12)C(=O)C(=O)c1ccccc13 (centres unmarked) [Compound 20]		2.3								
CC1(C)CCC2=C(O1)c1cc(Cl)ccc1C(=O)C2=O [Compound 21]		2.2		127	46	39	127	138	41.1	-28.3
Cc1ccc2c(c1)C1=C(CCC(C)(C)O1)C(=O)C2=O [Compound 22]		1.9		132	57	49	142	168	48.7	-16.5
CCC1(C)CCC2=C(O1)c1ccccc1C(=O)C2=O (centres unmarked) [Compound 24]	no visually observable symptoms with exception of weight loss	2.1	no visually observable symptoms with exception of weight loss							
CCC1(CC)CCC2=C(O1)c1ccccc1C(=O)C2=O [Compound 25]	no visually observable symptoms with exception of weight loss	1.8	no visually observable symptoms with exception of weight loss							
CC1(c2ccccc2)CCC2=C(O1)c1ccccc1C(=O)C2=O (centres unmarked) [Compound 26]	no visually observable symptoms with exception of weight loss	2.2	no visually observable symptoms with exception of weight loss	128	40	33	131	137	42.3	-25.5
O=C1C(=O)c2ccccc2C2=C1CCC1(CCCCC1)O2 [Compound 27]		1.7								
O=C1C(=O)c2ccccc2C2=C1CCC1(CCCC1)O2 [Compound 28]		1.7								
Cc1cc2c(o1)-c1ccccc1C(=O)C2=O [Compound 29]		1.3								
Cc1coc2c1C(=O)C(=O)c1ccccc1-2 [Compound 30]		1.2								
Cc1ccc2c(c1)C(=O)C(=O)c1c(C)coc1-2 [Compound 31]		1.2								
Cc1ccc2c(c1)-c1occ(C)c1C(=O)C2=O [Compound 32]		1.3								
